Test results from patent publication EP4806898A1, “HETEROARYL DERIVATIVE COMPOUND AND USE THEREOF” (Voronoi Inc., priority 2023, dated 2025).

Legend:
recombinant USP1 protein = biological target: T1, recombinant USP1 protein (Homo sapiens, UniProt O94782, DEL125-138/DEL229-408/DEL608-737); test: Binding affinity to recombinant USP1 protein by differential scanning fluorimetry; details: compound 100 µM; 0.03 mg/mL USP1 (Δ1-66, Δ125-138, Δ229-408, Δ608-737); Tm with compound minus Tm with DMSO; read-out: ΔTm (°C)
T1 sequence (O94782 with tags, fused parts or gaps DEL125-138/DEL229-408/DEL608-737): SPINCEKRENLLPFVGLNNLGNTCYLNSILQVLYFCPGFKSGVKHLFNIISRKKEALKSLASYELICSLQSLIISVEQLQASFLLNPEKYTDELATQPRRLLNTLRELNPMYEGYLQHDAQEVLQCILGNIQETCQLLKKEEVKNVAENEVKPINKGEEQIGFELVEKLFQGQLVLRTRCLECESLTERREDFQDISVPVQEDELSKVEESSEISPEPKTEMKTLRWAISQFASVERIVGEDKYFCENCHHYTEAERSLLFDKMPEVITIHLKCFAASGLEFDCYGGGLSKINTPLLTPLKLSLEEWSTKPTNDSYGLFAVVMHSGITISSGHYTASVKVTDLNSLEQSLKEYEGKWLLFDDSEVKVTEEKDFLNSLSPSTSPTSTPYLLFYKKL
Outline: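 USP1 (Δ1-66, Δ125-138, Δ229-408, Δ608-737) at 0.03 mg/mL with dye in 50 mM Tris-HCl pH 8.0, 150 mM NaCl, 2% glycerol, 1 mM DTT; compounds at 100 µM final. Tm read on real-time PCR instrument; ΔTm = Tm with compound minus Tm with DMSO.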

UWB1.289 cells = test: Cell proliferation inhibitory activity in BRCA1/2-mutant or HRD-positive cells (Cell Titer-Glo); assay type: cell-based; details: UWB1289; UWB1.289 cells, 144 hours after compound treatment, Cell Titer-Glo, 1.5 nM to 10 µM; read-out: GI50 UWB1.289 BRCA1 mut
Outline: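 UWB1.289 cells (1,000/well) in 50% MEBM/50% RPMI1640 exposed to […], final 1.5 nM to 10 µM, for 144 h at 37 °C. Viable cells measured by CellTiter-Glo luminescence; GI50 calculated.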

Row | SMILES | ΔTm at 100 µM (recombinant USP1 protein) [°C] | GI50 (UWB1.289 cells) [µM]
1 | COc1ncnc(C2CC2)c1-c1ncc2cc(C(=O)N[C@H]3CN(C4CC4)C[C@H]3F)n(Cc3ccc(-c4nc(C(F)(F)F)cn4C)cc3)c2n1 [Example 215, N-((3S,4R)-1-cyclopropyl-4-fluoropyrrolidin-3-yl)-2-(4-cyclopropyl-6-methoxypyrimidin-5-yl)-7-(4-(1-methyl-4-(trifluoromethyl)-1H-imidazol-2-yl)benzyl)-7H-pyrrolo[2,3-d]pyrimidine-6-carboxamide] | > 5 | < 0.1
2 | COc1ncnc(C2CC2)c1-c1ncc2cc(C(=O)N[C@@H]3CCN(C4COC4)C[C@@H]3F)n(Cc3ccc(-c4nc(C(F)(F)F)cn4C)cc3)c2n1 [Example 216, 2-(4-cyclopropyl-6-methoxypyrimidin-5-yl)-N-((3S,4R)-3-fluoro-1-(oxetan-3-yl)piperidin-4-yl)-7-(4-(1-methyl-4-(trifluoromethyl)-1H-imidazol-2-yl)benzyl) -7H-pyrrolo[2,3-d]pyrimidine-6-carboxamide] | > 5 | 0.1 to 0.5
3 | COc1ncnc(C2CC2)c1-c1ncc2cc(C(=O)N[C@@H]3CN(C)C[C@@H]3F)n(Cc3ccc(-c4nc(C(F)(F)F)cn4C)cc3)c2n1 [Example 217, 2-(4-cyclopropyl-6-methoxypyrimidin-5-yl)-N-((3R,4S)-4-fluoro-1-methylpyrrolidin-3-yl)-7-(4-(1-methyl-4-(trifluoromethyl)-1H-imidazol-2-yl)benzyl) -7H-pyrrolo[2,3-d]pyrimidine-6-carboxamide] | > 5 | < 0.1
4 | COc1ncnc(C2CC2)c1-c1ncc2cc(C(=O)N[C@@H]3CN(C)C[C@H]3F)n(Cc3ccc(-c4nc(C(F)(F)F)cn4C)cc3)c2n1 [Example 218, 2-(4-cyclopropyl-6-methoxypyrimidin-5-yl) -N-((3R,4R)-4-fluoro-1-methylpyrrolidin-3-yl)-7-(4-(1-methyl-4-(trifluoromethyl)-1H-imidazol-2-yl)benzyl)-7H-pyrrolo[2,3-d]pyrimidine-6-carboxamide] | > 5 | < 0.1
5 | COc1ncnc(C2CC2)c1-c1ncc2cc(C(=O)N[C@@H]3CCN(C)C[C@@H]3F)n(Cc3ccc(-c4nc(C(F)(F)F)cn4C(C)C)cc3)c2n1 [Example 219, 2-(4-cyclopropyl-6-methoxypyrimidin-5-yl)-N-((3S,4R)-3-fluoro-1-methylpiperidin-4-yl)-7-(4-(1-isopropyl-4-(trifluoromethyl)-1H-imidazol-2-yl)benzyl)-7H-pyrrolo[2,3-d]pyrimidine-6-carboxamide] | > 5 | < 0.1
6 | COc1ncnc(C2CC2)c1-c1ncc2cc(C(=O)N[C@H]3CN(C)C[C@H]3F)n(Cc3ccc(-c4nc(C(F)(F)F)cn4C(C)C)cc3)c2n1 [Example 220, 2-(4-cyclopropyl-6-methoxypyrimidin-5-yl)-N-((3S,4R)-4-fluoro-1-methylpyrrolidin-3-yl)-7-(4-(1-isopropyl-4-(trifluoromethyl)-1H-imidazol-2-yl)benzyl)-7H-pyrrolo[2,3-d]pyrimidine-6-carboxamide] | > 5 | < 0.1
7 | COc1ncnc(C2CC2)c1-c1ncc2cc(C(=O)N[C@@H]3CCN(C(C)C)C[C@@H]3F)n(Cc3ccc(-c4nc(C(F)(F)F)cn4C)cc3)c2n1 [Example 221, 2-(4-cyclopropyl-6-methoxypyrimidin-5-yl)-N-((3S,4R)-3-fluoro-1-isopropylpiperidin-4-yl)-7-(4-(1-methyl-4-(trifluoromethyl)-1H-imidazol-2-yl)benzyl)-7H-pyrrolo[2,3-d]pyrimidine-6-carboxamide] | > 5 | < 0.1
